Results from PMC3865603 (Cancer chemotherapy and pharmacology, 2011).

Key:
[1] = test system: patients with advanced solid tumors; experiment: Phase I dose escalation: safety, DLT, MTD; format: in vivo, human; conditions: for Dyspnea, grade 3: listed as remotely related to study drug
[2] = test system: plasma proteins; conditions: cited from earlier work
[3] = test system: CYP3A4/5; conditions: in vitro; cited from earlier work
[4] = 0.8 mg/m^2 (n = 1), treatment-related
[5] = 1.5 mg/m^2 (n = 4), treatment-related
[6] = 2.5 mg/m^2 (n = 4), treatment-related
[7] = 3.7 mg/m^2 (n = 3), treatment-related
[8] = 5 mg/m^2 (n = 4), treatment-related
[9] = 6.5 mg/m^2 (n = 6), treatment-related
[10] = 8.5 mg/m^2 (n = 3), treatment-related
[11] = 11.3 mg/m^2 (n = 4), treatment-related
[12] = 15 mg/m^2 (n = 4), treatment-related
[13] = 20 mg/m^2 (n = 5), treatment-related
[14] = 27 mg/m^2 (n = 4), treatment-related
[15] = 36 mg/m^2 (n = 16), treatment-related
[16] = 42 mg/m^2 (n = 6), treatment-related
[17] = 48 mg/m^2 (n = 2), treatment-related

C/C1=C/C[C@@H](/C(C)=C/c2csc(C)n2)OC(=O)C[C@H](O)C(C)(C)C(=O)[C@H](C)[C@@H](O)[C@@H](C)/C=C/C1 [KOS-1584, (E)-9,10-didehydroepothilone D]
Dyspnea, grade 3 ([1]; 0.8 mg/m^2 (n = 1)): 1 no. of patients | Anemia, grade 1/2 [1, 4]: 1 no. of patients | Anorexia, grade 1/2 [1, 4]: 1 no. of patients | Asthenia/fatigue, grade 3 [1, 4]: 1 no. of patients | Constipation, grade 1/2 [1, 4]: 1 no. of patients | Diarrhea, grade 1/2 [1, 4]: 1 no. of patients | Nausea/vomiting, grade 1/2 [1, 4]: 1 no. of patients | Anorexia, grade 1/2 [1, 5]: 2 no. of patients | Arthralgia/myalgia, grade 1/2 [1, 5]: 1 no. of patients | Back pain, grade 1/2 [1, 5]: 2 no. of patients | Diarrhea, grade 1/2 [1, 5]: 2 no. of patients | Dyspnea, grade 1/2 [1, 5]: 1 no. of patients | Lymphopenia, grade 1/2 [1, 5]: 1 no. of patients | Nausea/vomiting, grade 1/2 [1, 5]: 1 no. of patients | Peripheral neuropathy, grade 1/2 [1, 5]: 2 no. of patients | Pleural effusion, grade 1/2 [1, 5]: 1 no. of patients | Abdominal pain, grade 1/2 [1, 6]: 2 no. of patients | Anorexia, grade 1/2 [1, 6]: 2 no. of patients | Asthenia/fatigue, grade 1/2 [1, 6]: 4 no. of patients | Constipation, grade 1/2 [1, 6]: 2 no. of patients | Diarrhea, grade 1/2 [1, 6]: 2 no. of patients | Dry skin/rash, grade 1/2 [1, 6]: 1 no. of patients | Nausea/vomiting, grade 1/2 [1, 6]: 2 no. of patients | Peripheral neuropathy, grade 1/2 [1, 6]: 1 no. of patients | Abdominal pain, grade 1/2 [1, 7]: 1 no. of patients | Anemia, grade 1/2 [1, 7]: 1 no. of patients | Arthralgia/myalgia, grade 1/2 [1, 7]: 1 no. of patients | Asthenia/fatigue, grade 1/2 [1, 7]: 1 no. of patients | Diarrhea, grade 1/2 [1, 7]: 2 no. of patients | Dizziness, grade 1/2 [1, 7]: 1 no. of patients | Nausea/vomiting, grade 1/2 [1, 7]: 1 no. of patients | Peripheral neuropathy, grade 1/2 [1, 7]: 1 no. of patients | Anorexia, grade 1/2 [1, 8]: 1 no. of patients | Dizziness, grade 1/2 [1, 8]: 1 no. of patients | Edema, grade 1/2 [1, 8]: 1 no. of patients | Nausea/vomiting, grade 1/2 [1, 8]: 1 no. of patients | Dyspnea, grade 3 ([1]; 6.5 mg/m^2 (n = 6)): 1 no. of patients | Anemia, grade 1/2 [1, 9]: 1 no. of patients | Asthenia/fatigue, grade 1/2 [1, 9]: 2 no. of patients | Diarrhea, grade 1/2 [1, 9]: 1 no. of patients | Dizziness, grade 1/2 [1, 9]: 2 no. of patients | Nausea/vomiting, grade 1/2 [1, 9]: 1 no. of patients | Pleural effusion, grade 1/2 [1, 9]: 1 no. of patients | Asthenia/fatigue, grade 1/2 [1, 10]: 1 no. of patients | Edema, grade 1/2 [1, 10]: 1 no. of patients | Peripheral neuropathy, grade 1/2 [1, 10]: 1 no. of patients | Anorexia, grade 1/2 [1, 11]: 1 no. of patients | Asthenia/fatigue, grade 1/2 [1, 11]: 1 no. of patients | Asthenia/fatigue, grade 3 [1, 11]: 1 no. of patients | Constipation, grade 1/2 [1, 11]: 1 no. of patients | Headache, grade 1/2 [1, 11]: 1 no. of patients | Nausea/vomiting, grade 1/2 [1, 11]: 1 no. of patients | Abdominal pain, grade 3 [1, 12]: 1 no. of patients | Anemia, grade 1/2 [1, 12]: 1 no. of patients | Asthenia/fatigue, grade 3 [1, 12]: 1 no. of patients | Diarrhea, grade 1/2 [1, 12]: 1 no. of patients | Edema, grade 1/2 [1, 12]: 1 no. of patients | Nausea/vomiting, grade 1/2 [1, 12]: 2 no. of patients | Peripheral neuropathy, grade 1/2 [1, 12]: 1 no. of patients | Alopecia, grade 1/2 [1, 13]: 1 no. of patients | Anemia, grade 1/2 [1, 13]: 1 no. of patients | Anorexia, grade 1/2 [1, 13]: 1 no. of patients | Asthenia/fatigue, grade 1/2 [1, 13]: 1 no. of patients | Constipation, grade 1/2 [1, 13]: 1 no. of patients | Diarrhea, grade 1/2 [1, 13]: 1 no. of patients | Lymphopenia, grade 1/2 [1, 13]: 1 no. of patients | Nausea/vomiting, grade 1/2 [1, 13]: 2 no. of patients | Peripheral neuropathy, grade 1/2 [1, 13]: 2 no. of patients | Dyspnea, grade 3 ([1]; 27 mg/m^2 (n = 4)): 1 no. of patients | Alopecia, grade 1/2 [1, 14]: 1 no. of patients | Anemia, grade 1/2 [1, 14]: 2 no. of patients | Anorexia, grade 1/2 [1, 14]: 1 no. of patients | Asthenia/fatigue, grade 1/2 [1, 14]: 4 no. of patients | Back pain, grade 1/2 [1, 14]: 1 no. of patients | Chest pain, grade 1/2 [1, 14]: 1 no. of patients | Constipation, grade 1/2 [1, 14]: 1 no. of patients | Diarrhea, grade 1/2 [1, 14]: 1 no. of patients | Dizziness, grade 1/2 [1, 14]: 1 no. of patients | Dry skin/rash, grade 1/2 [1, 14]: 1 no. of patients | Headache, grade 1/2 [1, 14]: 3 no. of patients | Nausea/vomiting, grade 1/2 [1, 14]: 1 no. of patients | Peripheral neuropathy, grade 1/2 [1, 14]: 4 no. of patients | incidence of diarrhea at RP2D, first figure ([1]; 36 mg/m^2): 31% | incidence of diarrhea at RP2D, second figure ([1]; 36 mg/m^2): 6% | Alopecia, grade 1/2 [1, 15]: 4 no. of patients | Anemia, grade 1/2 [1, 15]: 2 no. of patients | Anorexia, grade 1/2 [1, 15]: 3 no. of patients | Arthralgia/myalgia, grade 3 [1, 15]: 1 no. of patients | Asthenia/fatigue, grade 3 [1, 15]: 1 no. of patients | Back pain, grade 1/2 [1, 15]: 1 no. of patients | Back pain, grade 3 [1, 15]: 1 no. of patients | Chest pain, grade 1/2 [1, 15]: 2 no. of patients | Chest pain, grade 3 [1, 15]: 1 no. of patients | Constipation, grade 1/2 [1, 15]: 1 no. of patients | Diarrhea, grade 1/2 [1, 15]: 4 no. of patients | Diarrhea, grade 3 [1, 15]: 1 no. of patients | Dry skin/rash, grade 1/2 [1, 15]: 1 no. of patients | Edema, grade 1/2 [1, 15]: 2 no. of patients | Headache, grade 1/2 [1, 15]: 1 no. of patients | Peripheral neuropathy, grade 1/2 [1, 15]: 11 no. of patients | Thrombocytopenia, grade 1/2 [1, 15]: 1 no. of patients | Abdominal pain, grade 3 [1, 16]: 2 no. of patients | Alopecia, grade 1/2 [1, 16]: 2 no. of patients | Anemia, grade 3 [1, 16]: 1 no. of patients | Anorexia, grade 1/2 [1, 16]: 2 no. of patients | Asthenia/fatigue, grade 1/2 [1, 16]: 3 no. of patients | Asthenia/fatigue, grade 3 [1, 16]: 1 no. of patients | Constipation, grade 3 [1, 16]: 1 no. of patients | Diarrhea, grade 1/2 [1, 16]: 3 no. of patients | Diarrhea, grade 3 [1, 16]: 2 no. of patients | Dizziness, grade 1/2 [1, 16]: 2 no. of patients | Lymphopenia, grade 3 [1, 16]: 1 no. of patients | Nausea/vomiting, grade 1/2 [1, 16]: 3 no. of patients | Neutropenia, grade 3 [1, 16]: 1 no. of patients | Peripheral neuropathy, grade 1/2 [1, 16]: 4 no. of patients | Peripheral neuropathy, grade 3 [1, 16]: 2 no. of patients | Thrombocytopenia, grade 1/2 [1, 16]: 1 no. of patients | Anorexia, grade 1/2 [1, 17]: 1 no. of patients | Arthralgia/myalgia, grade 3 [1, 17]: 1 no. of patients | Asthenia/fatigue, grade 1/2 [1, 17]: 1 no. of patients | Back pain, grade 3 [1, 17]: 1 no. of patients | Nausea/vomiting, grade 3 [1, 17]: 1 no. of patients | Peripheral neuropathy, grade 3 [1, 17]: 1 no. of patients | frequency of all-grade peripheral neuropathy ([1]; RP2D 36 mg/m^2): 69% | frequency of grade ≥3 peripheral neuropathy ([1]; RP2D 36 mg/m^2): 0% | patients who discontinued therapy due to adverse effects ([1]; all cohorts): Five | patients with positive FOBT or hematochezia ([1]; all cohorts): Five | myelosuppression ([1]; heavily pretreated patients): very low incidence of myelosuppression | recommended phase II dose (RP2D) ([1]; iv every 3 weeks): 36 mg/m^2 | maximum tolerated dose (MTD) ([1]; iv over 3 h every 3 weeks): 36 mg/m^2 | hypersensitivity reactions ([1]; no routine premedication): not associated with any hypersensitivity reactions | bound to plasma proteins [2]: 97% | inhibition of CYP3A4/5 [3]: potent inhibitor
